Laboratory results from patent publication US20050074834A1 (priority 2001, published 2005).
“Also recorded” adds a separate entry of the source. Where a name gives a salt, the structure may show the parent alone.

Assays:
chromatophores [1] = system: chromatophores
[2] = system: chromatophore/neuronal cell; format: cell-based
[3] = system: chromatophore/fungal cell; format: cell-based
chromatophores [4] = format: cell-based
chromatophores [5] = experiment: cells; details: read-out: Threshold concentration PPM
[6] = system: chromatophore/protozoal cell; format: cell-based
fish chromatophores = format: cell-based
xanthophores = format: cell-based
erythrophores = format: cell-based
iridophores = format: cell-based
melanophores = format: cell-based
[7] = system: chromatophore/bacterial cell; format: cell-based
[8] = system: Hemichromis bimaculatus chromatophores; format: cell-based
Betta chromatophores [9] = format: cell-based
Betta chromatophores [10] = format: cell-based, Betta splendens
[11] = system: Betta splendens chromatophores; format: cell-based
[12] = system: Betta splendens erythrophores; format: cell-based
ryanodine receptors = details: cited from earlier work

With `Nc1ncnc2c1ncn2[C@@H]1O[C@H](COP(=O)(O)OP(=O)(O)OP(=O)(O)O)[C@@H](O)[C@H]1O` [ATP] as the compound, how does the “Threshold concentration PPM” value (chromatophores [1]) read?
The value was “X (key: X=1 to 100 PPM; XX=100 to 1000 PPM)”.

What about the “2-Cell Cytosensor (second cell type included)” value (“2-Cell Cytosensor” for short) [2] of the same compound?
Its value is “Erythr. Aggr”.

What does the source list for `C[C@@H]1[C@H](O)[C@@H](C)/C=C/C=C/C=C/C=C/C=C/C=C/C=C/[C@H](O[C@@H]2O[C@H](C)[C@@H](O)[C@H](N)[C@@H]2O)C[C@@H]2O[C@](O)(C[C@@H](O)C[C@@H](O)[C@H](O)CC[C@@H](O)C[C@@H](O)CC(=O)O[C@H]1C)C[C@H](O)[C@H]2C(=O)O` [Amphotericin B]?
Response time Hr. (chromatophores [1]): XX (key: X=1-6 hr; XX=6-24 hr); Threshold concentration PPM (chromatophores [1]): X (key: X=1 to 100 PPM; XX=100 to 1000 PPM); 2-Cell Cytosensor (second cell type included) [3]: Normal

What does the source list for `Cn1c(=O)c2c(ncn2C)n(C)c1=O` [Caffeine]?
Threshold concentration PPB (chromatophores [1]): XXX; concentration printed for an analyte to which chromatophores respond (chromatophores [4]): 100 µM

For `C[N+](C)(C)CCOC(N)=O` [Carbachol], which minimal effective concentration (chromatophores [5]) is on record?
Its minimal effective concentration is 1 to 100 µg/mL.

What about the “2-Cell Cytosensor” value [2] of the same compound?
The value was “Erythr. Aggr”.

Which results are given for `CCN(CC)CCCC(C)Nc1ccnc2cc(Cl)ccc12` (centres unmarked) [Chloroquine]?
minimal effective concentration (chromatophores [5]): 100 to 1000 µg/mL; Response time Hr. (chromatophores [1]): XX (key: X=1-6 hr; XX=6-24 hr); 2-Cell Cytosensor (second cell type included) [6]: Normal

Which “Threshold concentration PPB” value (chromatophores [1]) does the source give for `Clc1cccc(Cl)c1N=C1NCCN1` [Clonidine] here?
The value was “XX (key: X=1 to 100 PPB; XX=100 to 1000 PPB)”.

What about the “chromatophore response after forskolin and PMSF” value (fish chromatophores) of the same compound?
Its value is “no aggregation occurred”.

What about the “chromatophore response in the absence of forskolin” value (fish chromatophores) of the same compound?
Its value is “aggregate; also recorded: aggregation”.

And the “chromatophore response in the presence of forskolin” value (fish chromatophores)?
The value was “unresponsive; also recorded: not detectable”.

And the “Chromatophore response Xanthophores” value (xanthophores)?
Its value is “Disp”.

Which “Threshold concentration PPB” value (chromatophores [1]) does the source give for `C=C[C@@]1(C)CC(=O)[C@]2(O)[C@@]3(C)[C@@H](O)CCC(C)(C)[C@@H]3[C@H](O)[C@H](OC(C)=O)[C@@]2(C)O1` [Forskolin] here?
The value was “XX (key: X=1 to 100 PPB; XX=100 to 1000 PPB)”.

And the “concentration printed for an analyte to which chromatophores respond” value (chromatophores [4])?
Its value is 0.01 µM.

With `Cc1ncc([N+](=O)[O-])n1CCO` [Metronidazole] as the compound, how does the minimal effective concentration (chromatophores [5]) read?
The minimal effective concentration was 1 to 100 µg/mL.

And the “Response time Hr.” value (chromatophores [1])?
Its value is “XX (key: X=1-6 hr; XX=6-24 hr)”.

And the “2-Cell Cytosensor” value [6]?
The value was “Normal”.

Which “Chromatophore response Erythrophores” value (erythrophores) does the source give for `COC(=O)C=C(C)OP(=O)(OC)OC` [Mevinphos] here?
The value was “Imp. (FS)”.

What about the “Response time Hr.” value (chromatophores [1]) of the same compound?
The value was “X (key: X=1-6 hr; XX=6-24 hr)”.

And the “Chromatophore response Iridophores” value (iridophores)?
The value was “Hue change, then Imp”.

And the “Chromatophore response Melanophores” value (melanophores)?
Its value is “Imp”.

For `CCn1cc(C(=O)O)c(=O)c2ccc(C)nc21` [Nalidixic acid], which minimal effective concentration (chromatophores [5]) is on record?
The minimal effective concentration was 1 to 100 µg/mL.

And the “Response time Hr.” value (chromatophores [1])?
The value was “XX (key: X=1-6 hr; XX=6-24 hr)”.

What about the “2-Cell Cytosensor” value [7] of the same compound?
The value was “Normal”.

With `c1ccc2c(CC3=NCCN3)cccc2c1` [Naphazoline] as the compound, how does the “Threshold concentration PPB” value (chromatophores [1]) read?
Its value is “XX (key: X=1 to 100 PPB; XX=100 to 1000 PPB)”.

And the “Chromatophore response Xanthophores” value (xanthophores)?
The value was “Disp”.

Which “change of appearance of Hemichromis bimaculatus chromatophores” value [8] does the source give for `NC[C@H](O)c1ccc(O)c(O)c1` [Norepinephrine] here?
Its value is “change the appearance”.

What about the “appearance of Betta chromatophores after exposure” value (Betta chromatophores [9]) of the same compound?
Its value is “aggregation of chromatophore pigment is apparent”.

And the “response time of the cytosensor” value (Betta chromatophores [10])?
Its value is “less than 1 minute”.

And the “Chromatophore response Xanthophores” value (xanthophores)?
Its value is “Disp”.

What about the “Chromatophore response Iridophores” value (iridophores) of the same compound?
The value was “Hue changes (FS)”.

For `Cc1cc(C(C)(C)C)c(O)c(C)c1CC1=NCCN1` [Oxymetazoline], which “Threshold concentration PPB” value (chromatophores [1]) is on record?
Its value is “XX (key: X=1 to 100 PPB; XX=100 to 1000 PPB)”.

And the “Chromatophore response Xanthophores” value (xanthophores)?
The value was “Disp”.

For `CCOP(=O)(OCC)Oc1ccc([N+](=O)[O-])cc1` [Paraoxon], which “Chromatophore response Erythrophores” value (erythrophores) is on record?
Its value is “Aggr. (FS)”.

And the “Chromatophore response Iridophores” value (iridophores)?
The value was “Hue changes (FS)”.

What about the “Chromatophore response Melanophores” value (melanophores) of the same compound?
The value was “A/I (FS)”.

With `C=C[C@H]1C[N@@]2CC[C@H]1C[C@H]2[C@H](O)c1ccnc2ccc(OC)cc12` [Quinine sulfate] as the compound, how does the minimal effective concentration (chromatophores [5]) read?
Its minimal effective concentration is 100 to 1000 µg/mL.

What about the “Response time Hr.” value (chromatophores [1]) of the same compound?
Its value is “XX (key: X=1-6 hr; XX=6-24 hr)”.

What about the “2-Cell Cytosensor” value [6] of the same compound?
The value was “Normal”.

Which results are given for `[H]/N=C(/N)N[C@H]1[C@H](O)[C@@H](O)[C@H](O[C@@H]2O[C@@H](C)[C@](O)(C=O)[C@H]2O[C@@H]2O[C@@H](CO)[C@H](O)[C@@H](O)[C@@H]2NC)[C@@H](N/C(N)=N\[H])[C@@H]1O` [Streptomycin]?
minimal effective concentration (chromatophores [5]): 1 to 100 µg/mL; Response time Hr. (chromatophores [1]): XX (key: X=1-6 hr; XX=6-24 hr); 2-Cell Cytosensor (second cell type included) [7]: Normal

With `c1ccc2c(c1)CCCC2C1=NCCN1` (centres unmarked) [Tetrahydrozoline] as the compound, how does the “Threshold concentration PPB” value (chromatophores [1]) read?
Its value is “XX (key: X=1 to 100 PPB; XX=100 to 1000 PPB)”.

What about the “Chromatophore response Xanthophores” value (xanthophores) of the same compound?
The value was “Disp”.

What does the source list for Cholera toxin?
Chromatophore response Erythrophores (erythrophores): Imp.; change of appearance of Hemichromis bimaculatus chromatophores [8]: change the appearance; erythrophore response upon norepinephrine exposure [8]: impaired; melanophore response upon challenge by norepinephrine [8]: unimpaired; chromatophore appearance after exposure (Betta chromatophores [9]): Pigment aggregation is evident; pigment aggregation in response to norepinephrine after pre-incubation with CTX (Betta chromatophores [9]): impaired pigment aggregation in response to NE; selective sensitivity of color classes of chromatophores (Betta chromatophores [9]): selective sensitivity of erythrophores to cholera toxin; Response time Hr. (chromatophores [1]): X (key: X=1-6 hr; XX=6-24 hr); Threshold concentration PPM (chromatophores [1]): X (key: X=1 to 100 PPM; XX=100 to 1000 PPM); concentration at which inhibition of norepinephrine induced pigment aggregation is detected [11]: ≥ 1 ng/mL; effect on Betta splendens chromatophores [11]: causes hyperdispersion

For Penicillin, which “Response time Hr.” value (chromatophores [1]) is on record?
Its value is “XX (key: X=1-6 hr; XX=6-24 hr)”.

What about the “Threshold concentration PPM” value (chromatophores [1]) of the same compound?
The value was “X (key: X=1 to 100 PPM; XX=100 to 1000 PPM)”.

What about the “2-Cell Cytosensor” value [7] of the same compound?
Its value is “Normal”.

For Ryanodine, which “Chromatophore response Erythrophores” value (erythrophores) is on record?
The value was “Aggr”.

What about the “Morphology Effect: Aggregation” value [12] of the same compound?
The value was “Yes and No”.

What about the “Morphology Effect: Dispersion” value [12] of the same compound?
Its value is “No”.

And the “Threshold concentration PPB” value (chromatophores [1])?
Its value is “XX (key: X=1 to 100 PPB; XX=100 to 1000 PPB)”.

What about the “concentrations at which ryanodine acts as an antagonist of the same receptors” value (ryanodine receptors) of the same compound?
The value was over 1 µM.
